Test results published in US20260216347A1, “Substituted Imidazo-Based Compounds as Ligand Directed Degraders of IRAK3” (Celgene Corporation, priority 2022, published 2026).

Legend:
IRAK3 [1] = target: T1, IRAK3 (Homo sapiens, UniProt Q9Y616); test: IRAK endogenous HTRF degradation assay (Total-IRAK3 HTRF kit); format: cell-based; settings: overnight incubation, lowest percentage of protein remaining
T1 construct: IRAK Endogenous HTRF Degradation Assay; endogenous in cells
T1 sequence (Q9Y616 1-596): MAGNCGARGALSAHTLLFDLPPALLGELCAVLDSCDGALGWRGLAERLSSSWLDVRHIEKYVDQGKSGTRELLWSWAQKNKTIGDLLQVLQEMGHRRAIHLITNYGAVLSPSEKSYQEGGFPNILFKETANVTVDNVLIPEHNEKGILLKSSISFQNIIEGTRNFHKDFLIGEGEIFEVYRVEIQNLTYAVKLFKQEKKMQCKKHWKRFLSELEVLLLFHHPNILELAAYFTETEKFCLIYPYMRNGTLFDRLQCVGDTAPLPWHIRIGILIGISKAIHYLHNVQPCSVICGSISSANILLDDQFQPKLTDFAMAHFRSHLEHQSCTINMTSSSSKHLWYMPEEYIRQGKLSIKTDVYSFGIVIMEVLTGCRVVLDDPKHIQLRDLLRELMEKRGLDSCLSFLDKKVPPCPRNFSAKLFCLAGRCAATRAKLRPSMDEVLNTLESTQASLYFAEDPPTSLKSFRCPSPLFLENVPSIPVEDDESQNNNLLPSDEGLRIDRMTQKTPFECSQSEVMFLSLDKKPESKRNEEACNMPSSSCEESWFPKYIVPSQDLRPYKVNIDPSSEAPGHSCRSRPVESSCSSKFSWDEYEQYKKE
Protocol: Example B2. IRAK Endogenous HTRF Degradation Assay
Cells (~50 k) were plated in Cisbio 96-well low volume white plates (Cisbio: cat #66PL96005). Compounds were dissolved in DMSO and a 3-fold serial dilution was performed using a TECAN D300E. Cells were incubated with the compound overnight. Total-IRAK3 HTRF kit from Cisbio was used for degradation analysis (Cisbio: 63ADK101PEH). Cryptate and D2 antibodies were diluted in Detection buffer as per manufacturers recommendation. Then 2 μL of each solution was added to 16 μL lysate. Buffer control (lysis buffer detection buffer), Cryptate control (lysis buffer+cryptate antibody+detection buffer), and Negative control (lysis buffer+cryptate antibody+D2 antibody) were made as per manufacturers recommendation. Post incubation with antibodies the HTRF signal was measured using a Perkin Elmer Envision reader and the HTRF signal was calculated using formula: (Emission at 665 nm/Emission at 615 nm)*10,000. All HTRF values were normalized to the average value of DMSO. The average value of the DMSO control wells were set to equal 100% of the relative IRAK3 protein levels. Normalized luminescence values were plotted on a graph as a function of compound concentration. Compound concentration was plotted on the x-axis and the corresponding normalized IRAK3 protein levels on the y-axis. The EC50 value (the half-maximum effective concentration) of a compound for the degradation of the IRAK3 was calculated using a four-parameter logistic model (sigmoidal dose-response model) (FIT=(A+{(B−A)/1+[(C/x)D]})) where C is the inflection point (EC50), D is the […], and A and B are the low and high limits of the fit, respectively). The Ymin was calculated by determining the lowest percentage of target protein remaining following compound treatment. Dmax was calculated from Ymin (% Dmax=100−Ymin).
Using these assays, IC50, Dmax, EC50, and DC50 values of the following compounds were determined. Dmax is defined as the maximum percent degradation achieved and DC50 is the concentration at which 50% degradation is achieved.

IRAK3 [2] = target: T1, IRAK3; test: IRAK3 biochemical binding assay (LanthaScreen Eu Kinase Binding, TR-FRET)
Summary of the method: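 TR-FRET tracer-displacement binding with 10 nM IRAK3, 2 nM Eu-anti-GST antibody and 10 nM tracer in 50 mM HEPES pH 7.4, MgCl2, 1 mM EGTA, 0.01% Brij-35. Compounds in 3-fold dilutions, 1 h at room temperature. 665/615 nm ratio gave % inhibition; IC50 and Hill slope from dose-response fit.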

IRAK3-ePL = target: T2, IRAK3-ePL (Homo sapiens, UniProt Q9Y616); test: IRAK3-ePL overexpressing degradation assay (InCELL Hunter luminescence, dose response); format: cell-based; settings: for IRAK3 ePL degradation Ymin: lowest percentage of target protein remaining following compound treatment; for DC50: read-out: IRAK3 ePL degradation EC50
T2 construct: expressed in transfected cells; host or cells: 293T CRBN OE/GSPT1 G575N KI cells, lentiviral transduction, puromycin selected
Summary of the method: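 Lenti-X 293T CRBN/GSPT1 G575N cells stably expressing IRAK3-ePL (5,000/well) treated overnight at 37° C with 10-point 3-fold dilutions from 10 μM, 0.2% DMSO. InCELL Hunter luminescence, background subtracted using Ataluren wells and normalized to DMSO; EC50 from four-parameter logistic fit.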

| IRAK3 HTRF degradation Ymin (IRAK3 [1]) [%] | IC50 (IRAK3 [2]) [nM] | IRAK3 ePL degradation Ymin (IRAK3-ePL) [%] | DC50 (IRAK3-ePL) [nM] | SMILES |
| --- | --- | --- | --- | --- |
| 25 | 4.6 | – | – | Cc1cc(-c2cnc(Nc3cnn(C4CCN(C(=O)CN5CCN(c6ccc7c(c6)C(=O)N(C6CCC(=O)NC6=O)C7=O)CC5)CC4)c3)c3nccn23)c(F)cc1F (centres unmarked) [Compound 24, 5-(4-(2-(4-(4-((5-(2,4-difluoro-5-methylphenyl)imidazo[1,2-a]pyrazin-8-yl)amino)-1H-pyrazol-1-yl)piperidin-1-yl)-2-oxoethyl)piperazin-1-y1)-2-(2,6-dioxopiperidin-3-yl)isoindoline-1,3-dione] |
| 18 | 1.7 | – | – | COc1cc(N2CCN(CCN3CCC(n4cc(Nc5ncc(-c6cc(C)c(F)cc6F)n6ccnc56)cn4)CC3)CC2)ccc1C1CCC(=O)NC1=O (centres unmarked) [Compound 25, 3-(4-(4-(2-(4-(4-((5-(2,4-difluoro-5-methylphenyl)imdazo [1,2-a]pyrazin-8-yl)amino)-1H-pyrazol-1-yl)piperidin-1-yl)ethyl)piperazin-1-yl)-2-methoxyphenyl) piperidine-2,6-dione] |
| 12 | 1.1 | – | – | Cc1cc(-c2cnc(Nc3cnn([C@H]4CCN(CCN5CCN(c6ccc(C7CCC(=O)NC7=O)cc6)CC5)[C@@H](C)C4)c3)c3nccn23)c(F)cc1F (stereo partly drawn) [Compound 26, 3-(4-(4-(2-((2S,4S)-4-(4-((5-(2,4-difluoro-5-methylphenyl)imdazo [1,2-a]pyrazin-8-yl)amino)-1H-pyrazol-1-yl)-2-methylpiperidin-1-yl)ethyl)piperazin-1-yl)phenyl) piperidine-2,6-dione] |
| 14 | 7.6 | – | – | Cc1cc(-c2cnc(Nc3cnn([C@H]4CC[C@@H](CCN5CCN(c6ccc(C7CCC(=O)NC7=O)cc6)C[C@@H]5C)CC4)c3)c3nccn23)c(F)cc1F (stereo partly drawn) [Compound 27, 3-(4-((S)-4-(2-((cis)-4-(4-((5-(2,4-difluoro-5-methylphenyl)imidazo[1,2-a]pyrazin-8-yl)amino)-1H-pyrazol-1-yl)cyclohexyl)ethyl)-3-methylpiperazin-1-yl)phenyl) piperidine-2,6-dione] |
| 7.5 | – | 21 | 0.51 | Cc1cc(-c2cnc(Nc3cnn([C@@H]4CCN(CCN5CCN(c6ccc(C7CCC(=O)NC7=O)cc6)C[C@@H]5C)[C@H](C)C4)c3)c3nccn23)c(F)cc1F (stereo partly drawn) [Compound 59, 3-(4-((S)-4-(2-((2R,4R)-4-(4-((5-(2,4-difluoro-5-methylphenyl)imdazo [1,2-a]pyrazin-8-yl)amino)-1H-pyrazol-1-yl)-2-methylpiperidin-1-yl)ethyl)-3-methylpiperazin-1-yl)phenyl) piperidine-2,6-dione] |
| 96 | – | 92 | 0.51 | Cc1cc(-c2cnc(N[C@@H]3CCN(C4CCN(CCN5CCN(c6ccc(C7CCC(=O)NC7=O)cc6)CC5)CC4)C3)c3nccn23)c(F)cc1F (stereo partly drawn) [Compound 60, 3-(4-(4-(2-(4-((R)-3-((5-(2,4-difluoro-5-methylphenyl)imdazo [1,2-a]pyrazin-8-yl)amino)pyrrolidin-1-yl)piperidin-1-yl)ethyl)piperazin-1-yl)phenyl) piperidine-2,6-dione] |
| 20 | – | 41 | 18 | Cc1cc(-c2cnc(Nc3cnn(C4CCN(CCN5CCN(c6ccc(C7CCC(=O)NC7=O)cc6)CC5)CC4)c3)c3ncc(C)n23)c(F)cc1F (centres unmarked) [Compound 61, 3-(4-(4-(2-(4-(4-((5-(2,4-difluoro-5-methylphenyl)-3-methylimidazo[1,2-a]pyrazin-8-yl)amino)-1H-pyrazol-1-yl)piperidin-1-yl)ethyl)piperazin-1-yl)phenyl) piperidine-2,6-dione] |
| 8.9 | – | 25 | 0.51 | Cc1cc(-c2cnc(Nc3cnn([C@H]4CCN(CCN5CCN(c6ccc(C7CCC(=O)NC7=O)cc6)CC5)C[C@H]4F)c3)c3nccn23)c(F)cc1F (stereo partly drawn) [Compound 63, 3-(4-(4-(2-((3R,4S)-4-(4-((5-(2,4-difluoro-5-methylphenyl)imdazo [1,2-a]pyrazin-8-yl)amino)-1H-pyrazol-1-yl)-3-fluoropiperidin-1-yl)ethyl)piperazin-1-yl)phenyl) piperidine-2,6-dione] |
| 8.6 | – | 25 | 4.2 | Cc1cccc(-c2cnc(Nc3cnn([C@H]4CC[C@H](CCN5CCN(c6ccc(C7CCC(=O)NC7=O)cc6)CC5)CC4)c3)c3nccn23)c1 (some centres unmarked) [Compound 64] |
| 96 | – | 86 | 3300 | Cc1cc(-c2cnc(N[C@H]3CCN(C4CCN(CCN5CCN(c6ccc(C7CCC(=O)NC7=O)cc6)CC5)CC4)C3)c3nccn23)c(F)cc1F (stereo partly drawn) [Compound 65, 3-(4-(4-(2-(4-((S)-3-((5-(2,4-difluoro-5-methylphenyl)imdazo [1,2-a]pyrazin-8-yl)amino)pyrrolidin-1-yl)piperidin-1-yl)ethyl)piperazin-1-yl)phenyl) piperidine-2,6-dione] |
| 9.1 | – | 24 | 0.51 | Cn1cc(-c2cnc(Nc3cnn(C4CCN(CCN5CCN(c6ccc(C7CCC(=O)NC7=O)cc6)CC5)CC4)c3)c3nccn23)cn1 (centres unmarked) [Compound 73, 3-(4-(4-(2-(4-(4-((5-(1-methyl-1H-pyrazol-4-yl)imidazo[1,2-a]pyrazin-8-yl)amino)-1H-pyrazol-1-yl)piperidin-1-yl)ethyl)piperazin-1-yl)phenyl) piperidine-2,6-dione] |
